Assay results reported in ChEMBL document CHEMBL3797052 (Eur J Med Chem, 2016).

Columns and labels:
M14 = assay: Antiproliferative activity against human M14 cells assessed as cell growth at 10^-4 M after 48 hrs by sulforhodamine B assay; assay type: functional; conditions: M14, 48 h, read-out: Activity
NCI-H460 = assay: Antiproliferative activity against human NCI-H460 cells assessed as cell growth at 10^-7 M after 48 hrs by sulforhodamine B assay; assay type: functional; conditions: NCI-H460, 48 h, read-out: Activity
[1] = Antiproliferative activity against human HCC2998 cells assessed as growth inhibition after 48 hrs by sulforhodamine B assay; assay type: functional; conditions: HCC 2998, 48 h; for CC50: read-out: LC50 (the source's name)
HT-29 = assay: Antiproliferative activity against human HT-29 cells assessed as cell growth at 10^-7 M after 48 hrs by sulforhodamine B assay; assay type: functional; conditions: HT-29, 48 h, read-out: Activity
[2] = Antiproliferative activity against human NCI-ADR-RES cells assessed as growth inhibition after 48 hrs by sulforhodamine B assay; assay type: functional
[3] = Antiproliferative activity against human SKOV3 cells assessed as growth inhibition after 48 hrs by sulforhodamine B assay; assay type: functional; conditions: SK-OV-3, 48 h; for CC50: read-out: LC50 (the source's name)
[4] = Antiproliferative activity against human NCI-ADR-RES cells assessed as cell growth at 10^-7 M after 48 hrs by sulforhodamine B assay; assay type: functional; conditions: read-out: Activity
[5] = Antiproliferative activity against human UACC257 cells assessed as cell growth at 10^-6 M after 48 hrs by sulforhodamine B assay; assay type: functional; conditions: UACC-257, 48 h, read-out: Activity
SK-MEL-5 = assay: Antiproliferative activity against human SK-MEL-5 cells assessed as cell growth at 10^-8 M after 48 hrs by sulforhodamine B assay; assay type: functional; conditions: SK-MEL-5, 48 h, read-out: Activity
T47D = assay: Antiproliferative activity against human T47D cells assessed as cell growth at 10^-6 M after 48 hrs by sulforhodamine B assay; assay type: functional; conditions: read-out: Activity
SR = assay: Antiproliferative activity against human SR cells assessed as cell growth at 10^-8 M after 48 hrs by sulforhodamine B assay; assay type: functional; conditions: read-out: Activity
SK-MEL-2 = assay: Antiproliferative activity against human SK-MEL-2 cells assessed as cell growth at 10^-7 M after 48 hrs by sulforhodamine B assay; assay type: functional; conditions: SK-MEL-2, 48 h, read-out: Activity
[6] = Antiproliferative activity against human PC3 cells assessed as growth inhibition after 48 hrs by sulforhodamine B assay; assay type: functional; conditions: PC-3, 48 h
[7] = Antiproliferative activity against human HCC2998 cells assessed as cell growth at 10^-6 M after 48 hrs by sulforhodamine B assay; assay type: functional; conditions: HCC 2998, 48 h, read-out: Activity
MDA-MB-468 = assay: Antiproliferative activity against human MDA-MB-468 cells assessed as cell growth at 10^-7 M after 48 hrs by sulforhodamine B assay; assay type: functional; conditions: MDA-MB-468, 48 h, read-out: Activity
NCI-H226 = assay: Antiproliferative activity against human NCI-H226 cells assessed as growth inhibition after 48 hrs by sulforhodamine B assay; assay type: functional; conditions: NCI-H226, 48 h; for CC50: read-out: LC50 (the source's name)
[8] = Antiproliferative activity against human IGROV1 cells assessed as growth inhibition after 48 hrs by sulforhodamine B assay; assay type: functional; conditions: IGROV-1, 48 h; for CC50: read-out: LC50 (the source's name)
[9] = Antiproliferative activity against human TK10 cells assessed as cell growth at 10^-8 M after 48 hrs by sulforhodamine B assay; assay type: functional; conditions: TK-10, 48 h, read-out: Activity
EKVX = assay: Antiproliferative activity against human EKVX cells assessed as cell growth at 10^-8 M after 48 hrs by sulforhodamine B assay; assay type: functional; conditions: read-out: Activity
[10] = Antiproliferative activity against human BT549 cells assessed as cell growth at 10^-8 M after 48 hrs by sulforhodamine B assay; assay type: functional; conditions: BT-549, 48 h, read-out: Activity
[11] = Antiproliferative activity against human UO31 cells assessed as cell growth at 10^-6 M after 48 hrs by sulforhodamine B assay; assay type: functional; conditions: UO-31, 48 h, read-out: Activity
[12] = Antiproliferative activity against human HOP92 cells assessed as growth inhibition after 48 hrs by sulforhodamine B assay; assay type: functional; conditions: HOP-92, 48 h
[13] = Antiproliferative activity against human IGROV1 cells assessed as cell growth at 10^-7 M after 48 hrs by sulforhodamine B assay; assay type: functional; conditions: IGROV-1, 48 h, read-out: Activity
[14] = Antiproliferative activity against human OVCAR8 cells assessed as cell growth at 10^-7 M after 48 hrs by sulforhodamine B assay; assay type: functional; conditions: OVCAR-8, 48 h, read-out: Activity
CYP1A2 = target: T1, CYP1A2 (Homo sapiens, UniProt P05177); assay: Inhibition of recombinant human CYP1A2 assessed as remaining enzyme activity using CYP1A2 blue as substrate at 10 uM after 5 mins in presence of NADP by fluorescence plate reader analysis; assay type: ADME; conditions: recombinant human CYP1A2, probe CYP1A2 blue, read-out: Activity
T1 sequence (P05177 whole entry): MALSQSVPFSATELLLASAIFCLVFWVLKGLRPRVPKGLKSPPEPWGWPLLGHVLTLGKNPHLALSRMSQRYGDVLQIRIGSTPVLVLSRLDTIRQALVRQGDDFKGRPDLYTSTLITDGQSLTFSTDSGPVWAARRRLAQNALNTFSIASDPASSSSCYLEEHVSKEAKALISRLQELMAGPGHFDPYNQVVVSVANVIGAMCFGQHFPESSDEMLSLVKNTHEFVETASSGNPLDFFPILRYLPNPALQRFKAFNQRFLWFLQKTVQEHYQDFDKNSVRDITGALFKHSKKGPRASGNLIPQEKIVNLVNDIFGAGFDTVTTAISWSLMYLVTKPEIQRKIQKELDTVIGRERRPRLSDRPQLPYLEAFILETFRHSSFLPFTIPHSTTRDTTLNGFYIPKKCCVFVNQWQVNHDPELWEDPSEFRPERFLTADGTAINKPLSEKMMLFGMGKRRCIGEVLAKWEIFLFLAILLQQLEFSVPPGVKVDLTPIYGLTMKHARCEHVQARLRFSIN

MDA-MB-231 = assay: Antiproliferative activity against human MDA-MB-231 cells assessed as cell growth at 10^-7 M after 48 hrs by sulforhodamine B assay; assay type: functional; conditions: MDA-MB-231, 48 h, read-out: Activity
[15] = Antiproliferative activity against human Caki1 cells assessed as growth inhibition after 48 hrs by sulforhodamine B assay; assay type: functional; conditions: CAKI-1, 48 h; for CC50: read-out: LC50 (the source's name)
SN12C = assay: Antiproliferative activity against human SN12C cells assessed as growth inhibition after 48 hrs by sulforhodamine B assay; assay type: functional; conditions: for CC50: read-out: LC50 (the source's name)
[16] = Antiproliferative activity against human RXF393 cells assessed as growth inhibition after 48 hrs by sulforhodamine B assay; assay type: functional; conditions: RXF 393, 48 h; for CC50: read-out: LC50 (the source's name)

Which growth at 100 µM (M14) does the source give for `CNC(=O)c1cc(Oc2ccc3nc(NC(=O)Nc4ccc(Cl)c(C(F)(F)F)c4)sc3c2)ccn1` here?
Its growth at 100 µM is 15%.

What about the growth at 0.1 µM (NCI-H460) of the same compound?
The growth at 0.1 µM was 103%.

What about the TGI [1] of the same compound?
Its TGI is > 100 µM.

What about the CC50 [1] of the same compound?
The CC50 was > 100 µM.

What about the growth at 0.1 µM (HT-29) of the same compound?
Its growth at 0.1 µM is 103%.

And the GI50 [2]?
Its GI50 is 2.43 µM.

And the LC50 (concentration killing 50% of cells) [2]?
Its LC50 (concentration killing 50% of cells) is > 100 µM.

What about the GI50 [3] of the same compound?
Its GI50 is 1.89 µM.

What about the TGI [3] of the same compound?
Its TGI is 4.21 µM.

What about the CC50 [3] of the same compound?
Its CC50 is 9.39 µM.

And the growth at 0.1 µM [4]?
The growth at 0.1 µM was 113%.

What about the growth at 1 µM [5] of the same compound?
Its growth at 1 µM is 90%.

And the growth at 0.01 µM (SK-MEL-5)?
Its growth at 0.01 µM is 93%.

And the growth at 1 µM (T47D)?
The growth at 1 µM was 43%.

What about the growth at 0.01 µM (SR) of the same compound?
The growth at 0.01 µM was 110%.

And the growth at 0.1 µM (SK-MEL-2)?
Its growth at 0.1 µM is 99%.

And the GI50 [6]?
The GI50 was 1.42 µM.

And the growth at 1 µM [7]?
The growth at 1 µM was 94%.

What about the growth at 0.1 µM (MDA-MB-468) of the same compound?
The growth at 0.1 µM was 85%.

What about the GI50 (NCI-H226) of the same compound?
The GI50 was 2.69 µM.

And the TGI (NCI-H226)?
Its TGI is 7.47 µM.

And the CC50 (NCI-H226)?
Its CC50 is > 100 µM.

And the GI50 [8]?
The GI50 was 2.02 µM.

And the TGI [8]?
Its TGI is 5.12 µM.

And the CC50 [8]?
The CC50 was > 100 µM.

What about the growth at 0.01 µM [9] of the same compound?
Its growth at 0.01 µM is 104%.

What about the growth at 0.01 µM (EKVX) of the same compound?
The growth at 0.01 µM was 97%.

And the growth at 0.01 µM [10]?
Its growth at 0.01 µM is 95%.

What about the growth at 1 µM [11] of the same compound?
The growth at 1 µM was 108%.

What about the GI50 [12] of the same compound?
The GI50 was 1.15 µM.

What about the LC50 [12] of the same compound?
The LC50 was 9.12 µM.

And the TGI [12]?
The TGI was 3.24 µM.

What about the growth at 0.1 µM [13] of the same compound?
Its growth at 0.1 µM is 97%.

What about the growth at 0.1 µM [14] of the same compound?
The growth at 0.1 µM was 108%.

And the activity at 5 min, 10 µM (CYP1A2)?
Its activity at 5 min, 10 µM is 106%.

And the growth at 0.1 µM (MDA-MB-231)?
The growth at 0.1 µM was 109%.

And the GI50 [15]?
The GI50 was 2.54 µM.

What about the CC50 [15] of the same compound?
Its CC50 is > 100 µM.

What about the GI50 (SN12C) of the same compound?
The GI50 was 2.44 µM.

And the TGI (SN12C)?
Its TGI is > 100 µM.

What about the CC50 (SN12C) of the same compound?
Its CC50 is > 100 µM.

And the GI50 [16]?
Its GI50 is 1.93 µM.

What about the TGI [16] of the same compound?
The TGI was 4.57 µM.

And the CC50 [16]?
Its CC50 is 13.9 µM.

Which GI50 [1] does the source give for `CNC(=O)c1cc(Oc2ccc(NC(=O)Nc3ccc(Cl)c(C(F)(F)F)c3)cc2)ccn1` [SORAFENIB] here?
The GI50 was 3.16 µM.

What about the TGI [1] of the same compound?
Its TGI is 3.16 µM.

What about the CC50 [1] of the same compound?
The CC50 was 6.31 µM.

What about the GI50 [2] of the same compound?
Its GI50 is 2.51 µM.

And the TGI [2]?
The TGI was 7.94 µM.

And the GI50 [3]?
The GI50 was 2.51 µM.

What about the TGI [3] of the same compound?
The TGI was 12.6 µM.

What about the CC50 [3] of the same compound?
The CC50 was 63.1 µM.

And the GI50 [6]?
Its GI50 is 2 µM.

What about the TGI [6] of the same compound?
The TGI was 7.94 µM.

What about the GI50 (NCI-H226) of the same compound?
Its GI50 is 2 µM.

And the TGI (NCI-H226)?
The TGI was 7.94 µM.

What about the CC50 (NCI-H226) of the same compound?
Its CC50 is 31.6 µM.

And the GI50 [8]?
The GI50 was 2.51 µM.

And the TGI [8]?
The TGI was 15.9 µM.

What about the CC50 [8] of the same compound?
The CC50 was 79.4 µM.

What about the TGI [12] of the same compound?
The TGI was 5.01 µM.

And the GI50 [15]?
The GI50 was 3.16 µM.

What about the TGI [15] of the same compound?
Its TGI is 3.98 µM.

And the CC50 [15]?
The CC50 was 10 µM.

And the GI50 (SN12C)?
Its GI50 is 2.51 µM.

What about the TGI (SN12C) of the same compound?
Its TGI is 10 µM.

And the CC50 (SN12C)?
Its CC50 is 39.8 µM.

And the GI50 [16]?
The GI50 was 3.16 µM.

And the TGI [16]?
Its TGI is 10 µM.

And the CC50 [16]?
Its CC50 is 39.8 µM.
